Legend:
[1] = test system: rat epidermal keratinocyte (REK) cells; experiment: PpIX formation in rat epidermal keratinocyte cells incubated with ALA at different temperatures; type: cell-based; settings: 0.5 mM ALA, after three hours (FIG. 2)
Experimental: Two trials of rat epidermal keratinocyte (REK) cells were incubated with 0.5 mM ALA at temperatures of 21° C. and 37° C., respectively, for varying times. […] Accordingly, a temperature gradient of about 16° C. is more than sufficient to inhibit metabolism of a photosensitizing agent in epidermal tissue surrounding a targeted treatment site.
Several trials of rat epidermal keratinocyte (REK) cells were incubated with various amounts of ALA ranging from 0.1 mM to 0.5 mM, at various temperatures ranging from 15° C. to 40° C.

[2] = test system: human skin; experiment: PpIX fluorescence imaging in human skin after topical DOHA followed by topical ALA; settings: human skin in vivo, DOHA topical 0.1%, 0.3%, 1% for 1 hour, followed by topical 5% ALA (FIG. 6)
Experimental: DOHA was topically applied to human skin in concentrations of (a) 0.1%, (b) 0.3%, and (c) 1% for 1 hour, followed by topical application of 5% ALA. PpIX fluorescence was then imaged.

[3] = test system: rat epidermal keratinocyte (REK) cells; experiment: Effect of DOHA pre-incubation on ALA-induced PpIX formation in REK cells; type: cell-based; settings: washed, then 0.25 mM ALA for 3 hours (FIG. 4)
Experimental: Several trials of rat epidermal keratinocyte (REK) cells were pre-incubated with various amounts of 4-dioxoheptanoic acid (DOHA) ranging from 1^−8 M to 1^−4 M. The cells were then washed, and incubated with 0.25 mM ALA for 3 hours.

| Compound | PpIX concentration ([1]; 21° C.) | PpIX concentration ([1]; 37° C.) | PpIX formation (fluorescence) [2] | PpIX formation ([3]; REK cells pre-incubated with DOHA at concentrations greater than 10^−5 M) | PpIX formation ([3]; REK cells pre-incubated with DOHA at concentrations greater than 10^−7 M) |
| --- | --- | --- | --- | --- | --- |
| NCC(=O)CCC(=O)O [ALA, aminolevulinic acid] | less than 50 pmol/10^6 | greater than 400 pmol/10^6 | – | – | – |
| CC(=O)CC(=O)CCC(=O)O [DOHA, 4-dioxoheptanoic acid] | – | – | effective to chemically inhibit PpIX formation | even further chemical inhibition | significantly inhibited |

From patent US8207212B2, “Methods and devices for epithelial protection during photodynamic therapy” (The General Hospital Corporation, priority 2003, dated 2012)
